From US20160324172A1, “Post-Harvest Coating for Fresh Produce” (Jones-Hamilton Co., priority 2015, published 2016)

Assay: Solubility of emulsifier/stabilizer in the coating solution (visual evaluation)
Format: physicochemical
Method: For this experiment, coating solutions consisted of: 200 g tap water, 14 g SAS (7 w %), 30 g cornstarch (15 w %), and varying amounts of diverse emulsifiers/stabilizers.
Treatment: For each emulsifying material, one grape tomato was soaked for 1 minute in respective coating solution, and allowed to dry on a cooling tray. If material generated a visually preferred coating, 8 more grape tomatoes were coated (ntotal=9) in the same solution to generate enough samples for a microbial test. […] A second grape tomato was soaked, and if the stickiness improved, the concentration of the emulsifying ingredient was further increased until preferred coating was achieved. 8 more tomatoes were coated at preferred concentration (ntotal=9) for microbial testing.
Evaluation: Coatings were photographed and evaluated visually after the material dried. Microbial test of tomatoes with preferred coatings: Grape tomatoes were stored for 7 days at room temperature on cooling trays. Three tomatoes (triplicates) were swabbed with pre-wetted cotton swabs after: 24 hours, 3 days and 7 days. For dilution purpose, the swabs were transferred to Eppendorf tubes with 1 ml PBS. Three 1 ul loops (triplicates) were used to transfer three 1 ul samples per Eppendorf tube to nutrient agar plates. Per swab: 1 Eppendorf tubes and 3 nutrient agar plates. Per tomato: 3 Eppendorf tubes and 9 nutrient agar plates. Nutrient agar plates were incubated at room temperature for 7 days. Colony forming units were counted after: 24 hours, 3 days and 7 days.

In the case of OCC(O)CO [Vegetable glycerin, glycerin], the “solubility in the water-based coating solution” value is reported as “good solubility”, the “Coating solution (Solubility of emulsifier/stabilizer)” value (200 g tap water, 14 g SAS, 30 g cornstarch plus emulsifier, visual evaluation) is reported as “Good” and the Solubility (overall assessment, solubility in coating solution) is reported as “Good”.
